Assay results: US12077503B2, “Substituted cyclic amides and their use as herbicides” (FMC CORPORATION, priority 2015, dated 2024)

Legend:
Type in all cases: in vivo
[1] = system: redroot pigweed (Amaranthus retroflexus); test: Test G Pre-Emergence Protocol; details: Amaranthus retroflexus, pre-emergence, 312 h, evaluated after 13 days; for pest or weed control at 15.625 g/ha: 15.625 g ai/ha; for pest or weed control at 15.625 g/ha / pest or weed control at 250 g/ha: read-out: Pigweed, Redroot damage rating (100=total damage to plant; 0=no damage to plant); for pest or weed control at 62.5 g/ha: 62.5 g ai/ha, 100=total damage to plant, 0=no damage to plant, read-out: plant damage rating, Pigweed, Redroot; for pest or weed control at 250 g/ha: 250 g ai/ha
In short: (§1)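 Seeds were sown in standard soil and kept one day in a glasshouse (24/16° C day/night, 14 h light, 65% humidity), then sprayed with compound in acetone/water (50:50) containing 0.5% Tween 20 at 15.625, 62.5 or 250 g/ha. Damage was scored after 13 days (0 = none, 100 = total).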

[2] = system: velvetleaf (Abutilon theophrasti); test: Test G Pre-Emergence Protocol; details: Abutilon theophrasti, pre-emergence, 312 h, evaluated after 13 days; for pest or weed control at 15.625 g/ha: 15.625 g ai/ha; for pest or weed control at 15.625 g/ha / pest or weed control at 250 g/ha: read-out: Velvetleaf damage rating (100=total damage to plant; 0=no damage to plant); for pest or weed control at 62.5 g/ha: 62.5 g ai/ha, 100=total damage to plant, 0=no damage to plant, read-out: plant damage rating, Velvetleaf; for pest or weed control at 250 g/ha: 250 g ai/ha
In short: as §1

[3] = system: barnyardgrass (Echinochloa crus-galli); test: Test G Pre-Emergence Protocol; details: Echinochloa crus-galli, pre-emergence, 312 h, evaluated after 13 days; for pest or weed control at 15.625 g/ha: 15.625 g ai/ha, read-out: Barnyard grass damage rating (100=total damage to plant; 0=no damage to plant); for pest or weed control at 62.5 g/ha: 62.5 g ai/ha, 100=total damage to plant, 0=no damage to plant, read-out: plant damage rating, Barnyardgrass; for pest or weed control at 250 g/ha: 250 g ai/ha, read-out: Barnyardgrass damage rating (100=total damage to plant; 0=no damage to plant)
In short: as §1

[4] = system: ivy-leaved morning glory (Ipomoea hederacea); test: Test G Pre-Emergence Protocol; details: Ipomoea, pre-emergence, 312 h, evaluated after 13 days; for pest or weed control at 15.625 g/ha: 15.625 g ai/ha, read-out: Morning-glory, Ivy-leaved damage rating (100=total damage to plant; 0=no damage to plant); for pest or weed control at 62.5 g/ha: 62.5 g ai/ha, 100=total damage to plant, 0=no damage to plant, read-out: plant damage rating, Morningglory, Ivy-leaved; for pest or weed control at 250 g/ha: 250 g ai/ha, read-out: Morningglory, Ivy-leaved damage rating (100=total damage to plant; 0=no damage to plant)
In short: as §1

corn (Zea mays) [5] = test: Test G Pre-Emergence Protocol; details: Zea mays, pre-emergence, 312 h, evaluated after 13 days; for plant injury at 15.625 g/ha: 15.625 g ai/ha; for plant injury at 15.625 g/ha / plant injury at 250 g/ha: read-out: Corn damage rating (100=total damage to plant; 0=no damage to plant); for plant injury at 62.5 g/ha: 62.5 g ai/ha, 100=total damage to plant, 0=no damage to plant, read-out: plant damage rating, Corn; for plant injury at 250 g/ha: 250 g ai/ha
In short: as §1

[6] = system: giant foxtail (Setaria faberi); test: Test G Pre-Emergence Protocol; details: Setaria faberi, pre-emergence, 312 h, evaluated after 13 days; for pest or weed control at 15.625 g/ha: 15.625 g ai/ha; for pest or weed control at 15.625 g/ha / pest or weed control at 250 g/ha: read-out: Foxtail, Giant damage rating (100=total damage to plant; 0=no damage to plant); for pest or weed control at 62.5 g/ha: 62.5 g ai/ha, 100=total damage to plant, 0=no damage to plant, read-out: plant damage rating, Foxtail, Giant; for pest or weed control at 250 g/ha: 250 g ai/ha
In short: as §1

[7] = system: redroot pigweed (Amaranthus retroflexus); test: Test G Post-Emergence Protocol; details: Amaranthus retroflexus, post-emergence, 312 h; for pest or weed control at 15.625 g/ha: 15.625 g ai/ha, evaluated after 13 days (100=total damage to plant; 0=no damage to plant), read-out: Pigweed, Redroot damage rating; for pest or weed control at 62.5 g/ha: 62.5 g ai/ha, read-out: Pigweed, Redroot damage rating (100=total damage to plant; 0=no damage to plant); for pest or weed control at 62.5 g/ha / pest or weed control at 250 g/ha: evaluated after 13 days; for pest or weed control at 250 g/ha: 250 g ai/ha, read-out: damage to plant, Pigweed, Redroot (100=total damage to plant; 0=no damage to plant)
In short: (§2)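 Post-emergence herbicidal damage, scored visually 0–100 at 13 days. Application at 15.625, 62.5 or 250 g/ha onto 8-day-old plants grown under glasshouse control.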

[8] = system: velvetleaf (Abutilon theophrasti); test: Test G Post-Emergence Protocol; details: Abutilon theophrasti, post-emergence, 312 h; for pest or weed control at 15.625 g/ha: 15.625 g ai/ha, evaluated after 13 days (100=total damage to plant; 0=no damage to plant), read-out: Velvetleaf damage rating; for pest or weed control at 62.5 g/ha: 62.5 g ai/ha, read-out: Velvetleaf damage rating (100=total damage to plant; 0=no damage to plant); for pest or weed control at 62.5 g/ha / pest or weed control at 250 g/ha: evaluated after 13 days; for pest or weed control at 250 g/ha: 250 g ai/ha, read-out: damage to plant, Velvetleaf (100=total damage to plant; 0=no damage to plant)
In short: as §2

[9] = system: barnyardgrass (Echinochloa crus-galli); test: Test G Post-Emergence Protocol; details: Echinochloa crus-galli, post-emergence, 312 h; for pest or weed control at 15.625 g/ha: 15.625 g ai/ha, evaluated after 13 days (100=total damage to plant; 0=no damage to plant), read-out: Barnyardgrass damage rating; for pest or weed control at 62.5 g/ha: 62.5 g ai/ha, read-out: Barnyardgrass damage rating (100=total damage to plant; 0=no damage to plant); for pest or weed control at 62.5 g/ha / pest or weed control at 250 g/ha: evaluated after 13 days; for pest or weed control at 250 g/ha: 250 g ai/ha, read-out: damage to plant, Barnyardgrass (100=total damage to plant; 0=no damage to plant)
In short: as §2

[10] = system: ivy-leaved morning glory (Ipomoea hederacea); test: Test G Post-Emergence Protocol; details: Ipomoea, post-emergence, 312 h; for pest or weed control at 15.625 g/ha: 15.625 g ai/ha, evaluated after 13 days (100=total damage to plant; 0=no damage to plant), read-out: Morningglory, Ivy-leaved damage rating; for pest or weed control at 62.5 g/ha: 62.5 g ai/ha, read-out: Morningglory, Ivy-leaved damage rating (100=total damage to plant; 0=no damage to plant); for pest or weed control at 62.5 g/ha / pest or weed control at 250 g/ha: evaluated after 13 days; for pest or weed control at 250 g/ha: 250 g ai/ha, read-out: damage to plant, Morningglory, Ivy-leaved (100=total damage to plant; 0=no damage to plant)
In short: as §2

corn (Zea mays) [11] = test: Test G Post-Emergence Protocol; details: Zea mays, post-emergence, 312 h; for plant injury at 15.625 g/ha: 15.625 g ai/ha, evaluated after 13 days (100=total damage to plant; 0=no damage to plant), read-out: Corn damage rating; for plant injury at 62.5 g/ha: 62.5 g ai/ha, read-out: Corn damage rating (100=total damage to plant; 0=no damage to plant); for plant injury at 62.5 g/ha / plant injury at 250 g/ha: evaluated after 13 days; for plant injury at 250 g/ha: 250 g ai/ha, read-out: damage to plant, Corn (100=total damage to plant; 0=no damage to plant)
In short: as §2

[12] = system: giant foxtail (Setaria faberi); test: Test G Post-Emergence Protocol; details: Setaria faberi, post-emergence, 312 h; for pest or weed control at 15.625 g/ha: 15.625 g ai/ha, evaluated after 13 days (100=total damage to plant; 0=no damage to plant), read-out: Foxtail, Giant damage rating; for pest or weed control at 62.5 g/ha: 62.5 g ai/ha, read-out: Foxtail, Giant damage rating (100=total damage to plant; 0=no damage to plant); for pest or weed control at 62.5 g/ha / pest or weed control at 250 g/ha: evaluated after 13 days; for pest or weed control at 250 g/ha: 250 g ai/ha, read-out: damage to plant, Foxtail, Giant (100=total damage to plant; 0=no damage to plant)
In short: as §2

Cc1nnc(NC(=O)[C@@H]2C(=O)N(C)C[C@H]2c2ccc(C(F)(F)F)cc2)s1 (racemic) [Compound 1559]
0%: pest or weed control at 15.625 g/ha [1] | pest or weed control at 62.5 g/ha [1] | pest or weed control at 250 g/ha [1] | pest or weed control at 15.625 g/ha [2] | pest or weed control at 62.5 g/ha [2] | pest or weed control at 250 g/ha [2] | pest or weed control at 15.625 g/ha [3] | pest or weed control at 62.5 g/ha [3] | pest or weed control at 250 g/ha [3] | pest or weed control at 15.625 g/ha [4] | pest or weed control at 62.5 g/ha [4] | pest or weed control at 250 g/ha [4] | plant injury at 15.625 g/ha (corn (Zea mays) [5]) | plant injury at 62.5 g/ha (corn (Zea mays) [5]) | plant injury at 250 g/ha (corn (Zea mays) [5]) | pest or weed control at 15.625 g/ha [6] | pest or weed control at 62.5 g/ha [6] | pest or weed control at 250 g/ha [6] | pest or weed control at 15.625 g/ha [7] | pest or weed control at 62.5 g/ha [7] | pest or weed control at 250 g/ha [7] | pest or weed control at 15.625 g/ha [8] | pest or weed control at 62.5 g/ha [8] | pest or weed control at 250 g/ha [8] | pest or weed control at 15.625 g/ha [9] | pest or weed control at 62.5 g/ha [9] | pest or weed control at 250 g/ha [9] | pest or weed control at 15.625 g/ha [10] | pest or weed control at 62.5 g/ha [10] | pest or weed control at 250 g/ha [10] | plant injury at 15.625 g/ha (corn (Zea mays) [11]) | plant injury at 62.5 g/ha (corn (Zea mays) [11]) | plant injury at 250 g/ha (corn (Zea mays) [11]) | pest or weed control at 15.625 g/ha [12] | pest or weed control at 62.5 g/ha [12] | pest or weed control at 250 g/ha [12]

CN1C[C@@H](c2ccc(NS(C)(=O)=O)cc2)[C@H](C(=O)Nc2ccccc2F)C1=O (racemic) [Compound 1416]
0%: pest or weed control at 15.625 g/ha [1] | pest or weed control at 62.5 g/ha [1] | pest or weed control at 250 g/ha [1] | pest or weed control at 15.625 g/ha [2] | pest or weed control at 62.5 g/ha [2] | pest or weed control at 250 g/ha [2] | pest or weed control at 15.625 g/ha [3] | pest or weed control at 62.5 g/ha [3] | pest or weed control at 250 g/ha [3] | pest or weed control at 15.625 g/ha [4] | pest or weed control at 62.5 g/ha [4] | pest or weed control at 250 g/ha [4] | plant injury at 15.625 g/ha (corn (Zea mays) [5]) | plant injury at 62.5 g/ha (corn (Zea mays) [5]) | plant injury at 250 g/ha (corn (Zea mays) [5]) | pest or weed control at 15.625 g/ha [6] | pest or weed control at 62.5 g/ha [6] | pest or weed control at 250 g/ha [6] | pest or weed control at 15.625 g/ha [7] | pest or weed control at 62.5 g/ha [7] | pest or weed control at 250 g/ha [7] | pest or weed control at 15.625 g/ha [8] | pest or weed control at 62.5 g/ha [8] | pest or weed control at 250 g/ha [8] | pest or weed control at 15.625 g/ha [9] | pest or weed control at 62.5 g/ha [9] | pest or weed control at 250 g/ha [9] | pest or weed control at 15.625 g/ha [10] | pest or weed control at 62.5 g/ha [10] | pest or weed control at 250 g/ha [10] | plant injury at 15.625 g/ha (corn (Zea mays) [11]) | plant injury at 62.5 g/ha (corn (Zea mays) [11]) | plant injury at 250 g/ha (corn (Zea mays) [11]) | pest or weed control at 15.625 g/ha [12] | pest or weed control at 62.5 g/ha [12] | pest or weed control at 250 g/ha [12]
